Assay results: patent US10578610B2, “Peptide regulators of mitochondrial fusion and methods of use” (priority 2016, dated 2020)
Ends that are not written are not given here.

Test system: mice subjected to cerebral ischemia
Experiment: Temporary middle cerebral artery (MCA) occlusion followed by reperfusion
Type: in vivo
Experimental: Studies were done to study the effects of TetherX-1 (SEQ ID NO:24) administration on cerebral tissue damage in mice in which ischemia was induced. In this blinded and placebo-controlled studies, 40 mice were subjected to temporary (40 minutes) middle cerebral artery (MCA) occlusion followed by reperfusion for 24 hours. Brains were removed and analyzed for direct and indirect infarct area and volume. […] Moreover, TetherX-1 administration reduced cerebral deficit (FIG. 20) and cerebral swelling (FIG. 21).

[1] = 3 mg/kg intravenously 1 hour before ischemia and immediately prior to reperfusion, vs vehicle
[2] = 3 mg/kg intravenously, vs vehicle

QDRLKFIDKQGELLAQDYKLRGGYGRKKRRQRRR [TAT-398-418Gly]
direct infarct area (3 mg/kg intravenously 1 hour before ischemia and immediately prior to reperfusion, 40 minutes MCA occlusion, reperfusion 24 hours, vs vehicle (water)): decrease | direct infarct volume [1]: decrease | indirect infarct area [1]: decrease | indirect infarct volume [1]: decrease | cerebral deficit [2]: reduced | cerebral swelling [2]: reduced
